Here are results for 25 compounds from patent US6225100A, “Arylsulfotransferase” (DCV, Inc., priority 1999, dated 2001).

Structures can show the parent of a compound that is named as a salt. Where two headings read alike, the source gives them in different places. Peptide text beside a SMILES is read from it.

Test [1] relates to AST from Clostridium innocuum strain 554WT. Briefly: AST assay, sulfate acceptors (phenolic compounds, tyrosylpeptides) with p-nitrophenylsulfate as sulfate donor. Format: biochemical. The following applies: for Yield (%) of sulfated tyrosylpeptide: tyrosylpeptides as sulfate acceptors.
The test system of test [2] is AST of Clostridium innocuum 554 ATCC 55803 (Strain 554WT). Briefly: AST assay, sulfate donor substrate specificity with tyramine as sulfate acceptor. Format: biochemical. The following applies: for Activity (%) as sulfate donor: relative to p-nitrophenylsulfate designated as 100% activity, tyramine as sulfate acceptor; for specific activity as donor substrate: normalized to p-acetylphenylsulfate as donor baseline at 100% activity. The procedure:
(§1) At each stage of purification, the AST activity was assayed by incubating the AST with 0.1 M Tris (pH 8.0), 5.0 mM p-nitrophenylsulfate (as aryl sulfate donor) and 2.5 mM tyramine (as sulfate acceptor). The reaction was incubated at 37° C. and terminated by addition of 1 N NaOH. The amount of p-nitrophenol formed during the reaction was determined by an absorbance reading at 405 nm. One unit of enzyme is equal to 1 mmol of p-nitrophenol formed per minute per milligram protein. Other aryl sulfate donors and phenolic acceptors were used at similar concentrations. Peptide acceptors were typically used in the 250-500 mM range. Formation of sulfated phenols and peptides was also quantitated via HPLC, using a 30% acetonitrile/70% water mobile phase. A UV detector was used to monitor peptides at 280 nm. Other wavelengths were used with various sulfated phenolic products and substrates as appropriate.
The AST assay was performed as described in Example 2 using each of the sulfate donors listed in Table 4, with tyramine as the sulfate acceptor in each case. […] Activity is shown as a percentage relative to the activity obtained with p-nitrophenylsulfate, which is designated as 100% activity.

A further test has as its system Clostridium innocuum AST. The test is described as follows: Effectors of arylsulfotransferase activity. Format: biochemical. Conditions: no effect / inhibitory / stimulatory. The text has this: The above-described physical and biochemical properties of a Clostridium innocuum AST of the present invention are summarized in Table 3.
Test [3] relates to bacterial arylsulfotransferase. The following applies: prior bacterial arylsulfotransferase; Kobashi et al., 1987; cited from earlier work.
Test [4] has as its system Eubacterium nodatum arylsulfotransferase. The test is described as follows: Sulfation of CCK-8 by Eubacterium nodatum enzyme. Format: biochemical. Conditions: under conditions similar to the prior art.
Test [5] has as its system Eubacterium A-44 arylsulfotransferase. The following applies: p-acetylphenylsulfate as donor baseline at 100% activity; Kobashi et al., 1987; cited from earlier work.
For test [6], the system named is AST of Clostridium innocuum 554 ATCC 55803 (Strain 554WT). The test is described as follows: Apparent Km from double reciprocal plots. Format: biochemical. As to the method: as §1
In this AST assay, various concentrations of p-nitrophenylsulfate (as a sulfate donor) and of tyramine (as a sulfate acceptor) were plotted against the corresponding enzyme reaction rate in a double reciprocal plots (FIG. 4). AST activity was determined as described previously.

[7] abbreviates: p-nitrophenylsulfate as sulfate donor.
Setting [8] is: phenolic compounds, p-nitrophenylsulfate as sulfate donor, tyramine 100.

With `CSCC[C@H](NC(=O)[C@H](Cc1c[nH]c2ccccc12)NC(=O)CNC(=O)[C@@H](NC(=O)[C@H](Cc1ccc(O)cc1)NC(=O)[C@H](CC(=O)O)NC(=O)[C@H](CCC(N)=O)NC(=O)[C@@H]1CCC(=O)N1)[C@@H](C)O)C(=O)N[C@@H](CC(=O)O)C(=O)N[C@@H](Cc1ccccc1)C(N)=O` (HELM PEPTIDE1{[Glp].Q.D.Y.T.G.W.M.D.F.[am]}$$$$V2.0), in test [1] (setting [7]), the “Yield (%) of sulfated tyrosylpeptide” value was 4.8%.
Regarding `Nc1ncnc2c1ncn2[C@@H]1O[C@H](COP(=O)(O)OS(=O)(=O)O)[C@@H](OP(=O)(O)O)[C@H]1O` [3'-phosphoadenosine-5'-phosphosulfate], the “utilization as a sulfate donor” value in test [2] (in words) is on record as “does not utilize”. For the same compound, the “Activity (%) as sulfate donor” value in test [2] came out at 0%.
For the compound `Cc1cc(=O)oc2cc(O)ccc12` [4-methylumbelliferone], the “Activity (%) as sulfate acceptor” value in test [1] (setting [8]) stood at 86%.
For the compound `Cc1cc(=O)oc2cc(OS(=O)(=O)O)ccc12` [4-methylumbelliferyl sulfate], in test [2], the “Activity (%) as sulfate donor” value is given as 46%.
In the case of `O=C(O)CN(CCN(CC(=O)O)CC(=O)O)CC(=O)O` [EDTA], the “Effectors: effect on enzyme activity” value in the test with Clostridium innocuum AST is recorded as “no effect”.
As to `CC[C@H](C)[C@H](NC(=O)[C@H](Cc1ccc(O)cc1)NC(=O)[C@@H](NC(=O)[C@H](CCCNC(=N)N)NC(=O)[C@@H](N)CC(=O)O)C(C)C)C(=O)N[C@@H](Cc1cnc[nH]1)C(=O)N1CCC[C@H]1C(=O)N[C@@H](Cc1ccccc1)C(=O)N[C@@H](Cc1cnc[nH]1)C(=O)N[C@@H](CC(C)C)C(=O)O` [angiotensin I] (H-DRVYIHPFHL-OH), the “Yield (%) of sulfated tyrosylpeptide” value in test [1] (setting [7]) was 8.8%.
The same measure, in the same setting: under `NC(=O)CC[C@@H]1NC(=O)[C@H](Cc2ccccc2)NC(=O)[C@H](Cc2ccc(O)cc2)NC(=O)[C@@H](N)CSSC[C@@H](C(=O)N2CCC[C@H]2C(=O)N[C@@H](CCCN=C(N)N)C(=O)NCC(N)=O)NC(=O)[C@H](CC(N)=O)NC1=O` [arg8 vasopressin] stands 35.8%.
`Oc1cc(O)c2c(c1)OC(c1ccc(O)c(O)c1)C(O)C2` (stereo not shown) [catechin]: the “Activity (%) as sulfate acceptor” value in test [1] was determined as 150.
Regarding `Oc1ccccc1O` [catechol], the “Activity (%) as sulfate acceptor” value in test [1] was 208.
Turning to `CSCC[C@H](NC(=O)[C@H](Cc1ccc(O)cc1)NC(=O)[C@@H](N)CC(=O)O)C(=O)NCC(=O)N[C@@H](Cc1c[nH]c2ccccc12)C(=O)N[C@@H](CCSC)C(=O)N[C@@H](CC(=O)O)C(=O)N[C@@H](Cc1ccccc1)C(N)=O` [cholecystokinin8, cholecystokinin-8], the “yield of sulfation of CCK-8” value is no less than 60% in test [1] (Clostridium arylsulfotransferase, under conditions similar to the prior art) and no less than 45% in test [4]. Moreover, the “Yield (%) of sulfated tyrosylpeptide” value in test [1] (setting [7]) amounted to 35.4%. In addition, the “highest reported yield of sulfated CCK-8” value in test [3] was roughly 31.3%.
Consider `C[C@@H](NC(=O)[C@@H](N)Cc1ccc(O)cc1)C(=O)N[C@@H](Cc1ccccc1)C(=O)NCC(=O)N[C@@H](Cc1ccc(O)cc1)C(=O)N1CCC[C@H]1C(=O)N[C@@H](CO)C(N)=O` [dermorphin], for which, in test [1] (setting [7]), the “Yield (%) of sulfated tyrosylpeptide” value is recorded as 67.0%.
Take `C[C@]12CC[C@@H]3c4ccc(OS(=O)(=O)O)cc4CC[C@H]3[C@@H]1CCC2=O` [estrone sulfate]: in test [2], the “specific activity as donor substrate” value is given as “about 17%” and the “Activity (%) as sulfate donor” value turned out to be 22%. For the same compound, the “specific activity as donor substrate” value in test [5] is on record as “about 3.4%”.
For the compound `O=S(=O)(O)Oc1c[nH]c2ccccc12` [indoxyl sulfate], the “specific activity as donor substrate” value in test [2] is reported as “about 27%”; in test [5], “about 2.2%”. Also, the “Activity (%) as sulfate donor” value in test [2] was determined as 35%.
`N=C(N)NCCC[C@H](NC(=O)[C@@H](N)Cc1ccc(O)cc1)C(=O)O` [kyotorphin]: the “Yield (%) of sulfated tyrosylpeptide” value in test [1] (setting [7]) was found to be 16.8%.
On the same count and under the same terms, under `CC(C)C[C@H](NC(=O)[C@H](Cc1ccccc1)NC(=O)CNC(=O)CNC(=O)[C@@H](N)Cc1ccc(O)cc1)C(=O)O` [leu enkephalin] stands 92.5%.
Consider `COC(=O)c1ccc(O)cc1` [methyl p-hydroxybenzoate], for which the “Activity (%) as sulfate acceptor” value in test [1] is 65.
In the case of `O=[N+]([O-])c1ccc(O)c(OS(=O)(=O)O)c1` [p-nitrocatechol sulfate], in test [2], the “Activity (%) as sulfate donor” value came to 196%.
Consider `Oc1ccccc1` [phenol], for which the “Activity (%) as sulfate acceptor” value in test [1] is on record as 194.
As for `CSCC[C@H](NC(=O)[C@H](CC(C)C)NC(=O)CNC(=O)[C@H](Cc1ccc(O)cc1)NC(=O)[C@H](Cc1ccccc1)NC(=O)[C@H](CCCCN)NC(=O)[C@H](CC(N)=O)NC(=O)[C@@H]1CCCN1C(=O)[C@H](CC(=O)O)NC(=O)[C@H](C)NC(=O)[C@@H]1CCC(=O)N1)C(N)=O` [physalaemin] (HELM PEPTIDE1{[Glp].A.D.P.N.K.F.Y.G.L.M.[am]}$$$$V2.0), in test [1] (setting [7]), the “Yield (%) of sulfated tyrosylpeptide” value was determined as 10.5%.
Still for that read-out and setting: under `CC(C)C[C@H](NC(=O)[C@H](Cc1ccc(O)cc1)NC(=O)[C@@H](N)CCCNC(=N)N)C(=O)N1CCC[C@H]1C(=O)N[C@H](C(=O)O)[C@@H](C)O` [proctolin] (H-RYLPT-OH) stands 19.8%.
For the compound `NCCc1ccc(O)cc1` [tyramine, 4-hydroxyphenethylamine], in test [1] (setting [8]), the “Activity (%) as sulfate acceptor” value stood at 100%. Besides, the Km in test [6] stood at 1.63 mM.
As for `COC(=O)[C@@H](N)Cc1ccc(O)cc1` [tyrosine methyl ester], in test [1] (setting [8]), the “Activity (%) as sulfate acceptor” value was determined as 59%.
Take `N[C@@H](Cc1ccc(O)cc1)C(=O)O` [tyrosine]: the “Activity (%) as sulfate acceptor” value in test [1] came to 13.
Regarding “hirudin (54-65) (GDFEEIPEEYLQ) [Gly-Asp-Phe-Glu-Glu-lle-Pro-Glu-Glu-Tyr-Leu-Gin]”, the “Yield (%) of sulfated tyrosylpeptide” value in test [1] (setting [7]) was 7.7%.
For phenolphthalein sulfate, the “Activity (%) as sulfate donor” value in test [2] stood at 12%.

What is called Km is the concentration of substrate that gives half-maximal velocity.
